Laboratory results reported in the Kinase Knowledgebase extract (Sharma et al. 2016).

Experiments:
[1] = biological target: PIK3CD (Human) (UniProt O00329); experiment: Assessment of Elastase Exocytosis From Neutrophils
[2] = biological target: PIK3CA (human) (UniProt P42336); experiment: Inhibition of PIK3CA Kinase Activity
[3] = biological target: PIK3CG (human) (UniProt P48736); experiment: Inhibition of PIK3CG Kinase Activity
[4] = biological target: PIK3CB (Human) (UniProt P42338); experiment: Inhibition of PIK3CB Kinase Activity
PIK3CB (Human), sequence (P42338 whole entry, looked up): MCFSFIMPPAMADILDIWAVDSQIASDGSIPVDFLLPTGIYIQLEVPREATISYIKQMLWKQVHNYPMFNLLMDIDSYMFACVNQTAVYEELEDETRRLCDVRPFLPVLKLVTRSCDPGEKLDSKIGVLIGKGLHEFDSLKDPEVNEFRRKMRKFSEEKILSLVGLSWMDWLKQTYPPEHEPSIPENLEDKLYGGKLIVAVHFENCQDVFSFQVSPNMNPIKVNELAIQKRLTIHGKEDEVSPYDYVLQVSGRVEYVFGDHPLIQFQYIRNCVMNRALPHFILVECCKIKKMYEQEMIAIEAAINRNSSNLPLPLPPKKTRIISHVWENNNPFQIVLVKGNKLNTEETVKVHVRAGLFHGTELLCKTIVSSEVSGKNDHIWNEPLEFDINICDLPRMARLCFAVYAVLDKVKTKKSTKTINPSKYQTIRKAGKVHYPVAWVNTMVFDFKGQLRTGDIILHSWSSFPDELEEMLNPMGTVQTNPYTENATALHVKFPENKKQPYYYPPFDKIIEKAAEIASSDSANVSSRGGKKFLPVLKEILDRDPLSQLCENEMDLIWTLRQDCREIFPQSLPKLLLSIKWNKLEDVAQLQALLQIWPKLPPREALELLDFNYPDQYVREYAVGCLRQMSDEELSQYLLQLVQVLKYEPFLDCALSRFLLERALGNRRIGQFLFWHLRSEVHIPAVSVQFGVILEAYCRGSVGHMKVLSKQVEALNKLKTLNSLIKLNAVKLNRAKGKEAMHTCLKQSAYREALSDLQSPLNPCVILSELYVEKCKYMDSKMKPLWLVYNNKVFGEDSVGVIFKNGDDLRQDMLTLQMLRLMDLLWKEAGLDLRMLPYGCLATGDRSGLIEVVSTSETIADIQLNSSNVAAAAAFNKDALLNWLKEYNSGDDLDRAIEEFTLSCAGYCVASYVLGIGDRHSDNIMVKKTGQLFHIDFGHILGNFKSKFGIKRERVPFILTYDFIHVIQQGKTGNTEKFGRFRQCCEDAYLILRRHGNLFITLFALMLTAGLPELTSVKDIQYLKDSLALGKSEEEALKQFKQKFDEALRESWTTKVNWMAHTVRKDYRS

[5] = biological target: PIK3CD (Human) (UniProt O00329); experiment: Assessment of Human B Lymphocyte Function; conditions: b cells

PIK3CG (human), sequence (P48736 whole entry, looked up): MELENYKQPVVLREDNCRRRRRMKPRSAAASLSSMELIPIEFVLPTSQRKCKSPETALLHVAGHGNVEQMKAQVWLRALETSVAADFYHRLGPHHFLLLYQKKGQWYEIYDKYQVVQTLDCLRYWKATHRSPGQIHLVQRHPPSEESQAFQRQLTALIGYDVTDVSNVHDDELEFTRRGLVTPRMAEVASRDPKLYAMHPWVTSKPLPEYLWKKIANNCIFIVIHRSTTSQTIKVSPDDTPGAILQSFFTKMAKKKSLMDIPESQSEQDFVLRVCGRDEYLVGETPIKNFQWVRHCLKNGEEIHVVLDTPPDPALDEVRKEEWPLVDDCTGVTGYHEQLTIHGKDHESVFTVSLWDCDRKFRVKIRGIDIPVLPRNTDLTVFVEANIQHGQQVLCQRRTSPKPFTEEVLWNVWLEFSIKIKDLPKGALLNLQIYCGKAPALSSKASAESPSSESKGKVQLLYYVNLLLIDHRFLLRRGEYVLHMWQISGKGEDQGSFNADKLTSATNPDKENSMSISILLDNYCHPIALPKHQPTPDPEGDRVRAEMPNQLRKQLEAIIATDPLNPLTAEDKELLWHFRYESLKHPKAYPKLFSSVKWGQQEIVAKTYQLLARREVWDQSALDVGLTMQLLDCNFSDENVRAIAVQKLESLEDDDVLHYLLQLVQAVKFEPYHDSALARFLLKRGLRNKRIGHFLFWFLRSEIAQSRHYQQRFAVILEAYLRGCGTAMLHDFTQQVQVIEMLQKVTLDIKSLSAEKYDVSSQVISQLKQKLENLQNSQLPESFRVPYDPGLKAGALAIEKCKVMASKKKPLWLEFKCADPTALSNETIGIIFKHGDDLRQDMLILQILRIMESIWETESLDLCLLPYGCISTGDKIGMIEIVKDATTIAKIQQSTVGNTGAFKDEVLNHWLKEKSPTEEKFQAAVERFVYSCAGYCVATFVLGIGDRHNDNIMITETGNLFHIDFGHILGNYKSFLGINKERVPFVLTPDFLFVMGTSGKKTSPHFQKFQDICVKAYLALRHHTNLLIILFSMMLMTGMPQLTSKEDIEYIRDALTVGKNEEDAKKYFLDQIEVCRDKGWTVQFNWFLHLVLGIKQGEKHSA
PIK3CD (Human), sequence (O00329 whole entry, looked up): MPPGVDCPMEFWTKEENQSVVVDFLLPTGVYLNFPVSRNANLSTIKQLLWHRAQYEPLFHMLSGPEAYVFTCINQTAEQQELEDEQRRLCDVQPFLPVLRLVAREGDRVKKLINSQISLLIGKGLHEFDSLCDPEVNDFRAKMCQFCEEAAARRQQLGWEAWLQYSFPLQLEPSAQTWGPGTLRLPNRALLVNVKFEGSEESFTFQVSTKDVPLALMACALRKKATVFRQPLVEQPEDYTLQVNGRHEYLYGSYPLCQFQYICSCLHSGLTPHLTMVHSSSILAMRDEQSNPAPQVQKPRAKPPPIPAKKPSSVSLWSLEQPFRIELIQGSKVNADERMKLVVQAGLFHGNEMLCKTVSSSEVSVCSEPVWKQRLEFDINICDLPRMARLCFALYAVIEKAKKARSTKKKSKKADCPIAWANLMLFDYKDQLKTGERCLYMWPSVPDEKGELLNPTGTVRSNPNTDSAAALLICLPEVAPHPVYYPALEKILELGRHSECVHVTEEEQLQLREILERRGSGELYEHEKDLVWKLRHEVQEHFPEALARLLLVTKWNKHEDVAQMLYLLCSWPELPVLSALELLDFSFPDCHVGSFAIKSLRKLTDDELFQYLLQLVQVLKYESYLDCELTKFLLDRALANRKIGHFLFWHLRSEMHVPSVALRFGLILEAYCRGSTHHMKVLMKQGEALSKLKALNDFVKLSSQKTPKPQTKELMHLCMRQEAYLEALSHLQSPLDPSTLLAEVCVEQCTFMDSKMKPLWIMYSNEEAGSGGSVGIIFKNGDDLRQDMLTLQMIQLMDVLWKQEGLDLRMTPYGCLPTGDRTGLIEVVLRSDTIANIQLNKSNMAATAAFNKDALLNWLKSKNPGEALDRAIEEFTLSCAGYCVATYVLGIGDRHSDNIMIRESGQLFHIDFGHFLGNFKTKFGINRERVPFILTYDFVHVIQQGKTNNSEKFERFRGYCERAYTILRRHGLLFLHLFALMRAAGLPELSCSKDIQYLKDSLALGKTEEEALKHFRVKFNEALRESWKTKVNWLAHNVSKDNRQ
PIK3CA (human), sequence (P42336 whole entry, looked up): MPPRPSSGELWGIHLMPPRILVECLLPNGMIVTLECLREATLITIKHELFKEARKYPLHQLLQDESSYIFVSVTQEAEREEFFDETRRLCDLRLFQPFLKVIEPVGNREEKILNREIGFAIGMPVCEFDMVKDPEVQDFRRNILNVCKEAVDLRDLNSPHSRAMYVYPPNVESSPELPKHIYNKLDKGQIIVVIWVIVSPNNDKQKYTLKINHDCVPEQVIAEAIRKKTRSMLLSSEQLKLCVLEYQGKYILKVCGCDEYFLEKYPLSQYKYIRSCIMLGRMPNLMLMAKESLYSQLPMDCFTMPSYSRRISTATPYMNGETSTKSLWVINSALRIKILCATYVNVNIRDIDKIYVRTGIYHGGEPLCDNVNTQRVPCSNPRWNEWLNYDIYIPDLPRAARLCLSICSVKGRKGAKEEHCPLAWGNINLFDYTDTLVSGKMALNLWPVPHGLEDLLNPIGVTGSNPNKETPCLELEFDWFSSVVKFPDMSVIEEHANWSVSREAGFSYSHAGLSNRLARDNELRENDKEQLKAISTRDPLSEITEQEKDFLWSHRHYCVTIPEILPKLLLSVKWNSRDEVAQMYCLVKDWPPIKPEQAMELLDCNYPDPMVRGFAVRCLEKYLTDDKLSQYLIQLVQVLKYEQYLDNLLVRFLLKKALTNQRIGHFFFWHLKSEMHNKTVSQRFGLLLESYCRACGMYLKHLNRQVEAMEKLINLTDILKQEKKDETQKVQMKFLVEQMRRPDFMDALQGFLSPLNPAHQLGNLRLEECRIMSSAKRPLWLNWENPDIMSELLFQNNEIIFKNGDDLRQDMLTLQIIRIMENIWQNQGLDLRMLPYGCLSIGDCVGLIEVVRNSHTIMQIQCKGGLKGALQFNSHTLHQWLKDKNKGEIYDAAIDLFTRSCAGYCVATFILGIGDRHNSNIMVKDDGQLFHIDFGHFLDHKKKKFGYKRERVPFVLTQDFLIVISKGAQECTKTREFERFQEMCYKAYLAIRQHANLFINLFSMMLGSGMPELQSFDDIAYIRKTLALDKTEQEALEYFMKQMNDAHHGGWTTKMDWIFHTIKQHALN

| EC50 [1] | IC50 [2] | IC50 [3] | IC50 [4] | EC50 [5] | Structure (SMILES) |
| --- | --- | --- | --- | --- | --- |
| 584 nM | 18700 nM | 1610 nM | 2440 nM | – | CCC(Nc1ncnc2[nH]cnc12)c1nc2cccc(C)c2c(=O)n1-c1cc(F)cc(F)c1 (centres undefined) |
| 84 nM | 9730 nM | 1060 nM | 1180 nM | 4.6 nM | CCC(Nc1ncnc2[nH]cnc12)c1nc2ccccc2c(=O)n1-c1ccccc1 (centres undefined) |
| 298 nM | 11200 nM | 1710 nM | 3240 nM | 30.7 nM | CCC(Nc1ncnc2[nH]cnc12)c1nc2cccc(Cl)c2c(=O)n1-c1c(F)cccc1F (centres undefined) |

| Structure (SMILES) | EC50 [1] | IC50 [2] | IC50 [3] | IC50 [4] | EC50 [5] |
| --- | --- | --- | --- | --- | --- |
| CC[C@H](Nc1ncnc2[nH]cnc12)c1nc2cccc(Cl)c2c(=O)n1-c1cc(F)cc(F)c1 | 382 nM | 7940 nM | 804 nM | 936 nM | 1.6 nM |
